# Laboratory results as given in publication PMC8800111 (The Journal of Biological Chemistry, 2021).
# Legend:
# Format in all cases: cell-based
# [1] = target: proteins of U3A human fibrosarcoma cells (4462 proteins detected) (Homo sapiens, UniProt P62857); conditions: protein RPS28, U3A cells
# [2] = target: proteins of U3A human fibrosarcoma cells (4462 proteins detected) (Homo sapiens, UniProt P40227); conditions: protein CCT6A; U3A cells
# [3] = target: proteins of U3A human fibrosarcoma cells (4462 proteins detected) (Homo sapiens, UniProt Q16576); conditions: protein RBBP7; soluble abundance after heat, U3A cells
# Sequence of proteins of U3A human fibrosarcoma cells (4462 proteins detected) (Homo sapiens, UniProt Q16576) (Q16576 whole entry): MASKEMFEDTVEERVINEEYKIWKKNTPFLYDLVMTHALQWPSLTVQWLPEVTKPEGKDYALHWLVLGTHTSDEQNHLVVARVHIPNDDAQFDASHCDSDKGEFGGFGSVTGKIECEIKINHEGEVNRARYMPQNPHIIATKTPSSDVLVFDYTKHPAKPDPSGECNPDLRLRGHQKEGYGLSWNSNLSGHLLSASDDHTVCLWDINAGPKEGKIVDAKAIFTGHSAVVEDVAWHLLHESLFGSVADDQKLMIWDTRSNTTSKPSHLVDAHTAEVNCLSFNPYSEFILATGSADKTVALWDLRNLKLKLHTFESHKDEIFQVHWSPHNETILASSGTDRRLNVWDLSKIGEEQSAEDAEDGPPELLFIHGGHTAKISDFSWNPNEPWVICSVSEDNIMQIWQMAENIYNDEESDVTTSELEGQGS
# [4] = target: proteins of U3A human fibrosarcoma cells (4462 proteins detected) (Homo sapiens, UniProt Q8N129); conditions: protein CNPY4, U3A cells
# Sequence of proteins of U3A human fibrosarcoma cells (4462 proteins detected) (Homo sapiens, UniProt Q8N129) (Q8N129 22-248): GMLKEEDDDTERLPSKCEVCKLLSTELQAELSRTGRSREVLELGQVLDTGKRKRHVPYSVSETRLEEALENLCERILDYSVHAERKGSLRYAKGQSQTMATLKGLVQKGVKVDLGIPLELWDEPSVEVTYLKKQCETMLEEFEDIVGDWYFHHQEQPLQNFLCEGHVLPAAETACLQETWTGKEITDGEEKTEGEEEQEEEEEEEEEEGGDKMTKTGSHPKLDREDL
# [5] = target: proteins of U3A human fibrosarcoma cells (4462 proteins detected) (Homo sapiens, UniProt O00231); conditions: protein PSMD11; U3A cells
# Sequence of proteins of U3A human fibrosarcoma cells (4462 proteins detected) (Homo sapiens, UniProt O00231) (O00231 whole entry): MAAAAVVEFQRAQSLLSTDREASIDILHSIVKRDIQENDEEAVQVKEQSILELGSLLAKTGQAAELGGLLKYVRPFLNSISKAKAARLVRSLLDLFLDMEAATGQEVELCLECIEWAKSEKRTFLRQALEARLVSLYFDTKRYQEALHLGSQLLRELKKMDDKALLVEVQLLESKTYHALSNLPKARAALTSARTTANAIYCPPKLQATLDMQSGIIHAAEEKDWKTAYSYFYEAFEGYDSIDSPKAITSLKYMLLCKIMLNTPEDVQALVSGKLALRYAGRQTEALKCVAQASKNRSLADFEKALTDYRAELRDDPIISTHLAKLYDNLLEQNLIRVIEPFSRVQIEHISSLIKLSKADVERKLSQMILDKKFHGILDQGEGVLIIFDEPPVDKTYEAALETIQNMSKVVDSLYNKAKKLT
# [6] = target: proteins of U3A human fibrosarcoma cells (4462 proteins detected) (Homo sapiens, UniProt O15294); conditions: protein OGT; U3A cells
# [7] = target: proteins of U3A human fibrosarcoma cells (4462 proteins detected) (Homo sapiens, UniProt P28482); conditions: protein MAPK1; soluble abundance after heat, U3A cells
# [8] = target: proteins of U3A human fibrosarcoma cells (4462 proteins detected) (Homo sapiens, UniProt A0FGR8); conditions: protein ESYT2; U3A, 10 μM, 2 h
# Sequence of proteins of U3A human fibrosarcoma cells (4462 proteins detected) (Homo sapiens, UniProt A0FGR8) (A0FGR8 whole entry): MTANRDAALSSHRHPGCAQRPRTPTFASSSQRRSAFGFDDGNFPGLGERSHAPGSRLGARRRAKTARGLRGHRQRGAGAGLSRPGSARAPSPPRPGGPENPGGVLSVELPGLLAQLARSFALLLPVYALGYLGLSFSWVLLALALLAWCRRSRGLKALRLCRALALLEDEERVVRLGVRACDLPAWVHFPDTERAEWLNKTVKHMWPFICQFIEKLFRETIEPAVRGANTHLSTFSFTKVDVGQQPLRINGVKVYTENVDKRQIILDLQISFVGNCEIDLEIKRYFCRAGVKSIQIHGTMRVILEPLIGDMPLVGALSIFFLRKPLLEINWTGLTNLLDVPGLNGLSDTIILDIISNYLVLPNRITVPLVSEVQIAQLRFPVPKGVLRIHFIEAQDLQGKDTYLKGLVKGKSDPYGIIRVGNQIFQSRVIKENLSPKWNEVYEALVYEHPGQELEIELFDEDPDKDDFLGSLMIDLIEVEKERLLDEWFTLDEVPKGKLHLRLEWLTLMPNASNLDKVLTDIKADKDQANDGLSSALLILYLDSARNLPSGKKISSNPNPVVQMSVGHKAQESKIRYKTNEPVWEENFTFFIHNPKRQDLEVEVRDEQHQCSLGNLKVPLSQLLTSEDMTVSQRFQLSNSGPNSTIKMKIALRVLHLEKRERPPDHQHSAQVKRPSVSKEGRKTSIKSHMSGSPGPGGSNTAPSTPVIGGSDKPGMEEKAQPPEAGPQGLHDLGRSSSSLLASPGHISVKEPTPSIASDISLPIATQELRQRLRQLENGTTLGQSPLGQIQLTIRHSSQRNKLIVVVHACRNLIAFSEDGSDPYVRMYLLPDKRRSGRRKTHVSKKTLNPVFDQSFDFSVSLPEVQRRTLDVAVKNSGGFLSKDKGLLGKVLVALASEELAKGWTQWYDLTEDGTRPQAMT
# [9] = target: proteins of U3A human fibrosarcoma cells (4462 proteins detected) (Homo sapiens, UniProt Q14651); conditions: protein PLS1; U3A cells
# Sequence of proteins of U3A human fibrosarcoma cells (4462 proteins detected) (Homo sapiens, UniProt Q14651) (Q14651 whole entry): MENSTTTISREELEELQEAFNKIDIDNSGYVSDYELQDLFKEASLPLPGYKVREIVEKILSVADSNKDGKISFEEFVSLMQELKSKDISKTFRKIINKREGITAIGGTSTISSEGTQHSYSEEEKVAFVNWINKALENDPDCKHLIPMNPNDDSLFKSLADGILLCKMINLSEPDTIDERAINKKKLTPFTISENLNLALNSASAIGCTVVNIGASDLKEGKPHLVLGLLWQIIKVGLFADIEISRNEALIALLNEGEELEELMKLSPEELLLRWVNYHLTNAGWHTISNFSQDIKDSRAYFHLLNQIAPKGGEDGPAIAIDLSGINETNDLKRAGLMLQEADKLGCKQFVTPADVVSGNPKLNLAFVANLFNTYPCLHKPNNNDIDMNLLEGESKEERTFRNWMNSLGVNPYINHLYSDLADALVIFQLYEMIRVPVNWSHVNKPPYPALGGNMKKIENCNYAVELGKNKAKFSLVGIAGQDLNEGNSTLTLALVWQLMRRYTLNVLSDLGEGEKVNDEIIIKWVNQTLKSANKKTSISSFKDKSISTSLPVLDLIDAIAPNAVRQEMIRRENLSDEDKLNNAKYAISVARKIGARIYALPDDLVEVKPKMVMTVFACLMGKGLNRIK
# [10] = target: proteins of U3A human fibrosarcoma cells (4462 proteins detected) (Homo sapiens, UniProt P07602); conditions: protein PSAP; soluble abundance after heat, U3A cells
# [11] = target: proteins of U3A human fibrosarcoma cells (4462 proteins detected) (Homo sapiens, UniProt P52943); conditions: protein CRIP2, U3A cells
# [12] = target: proteins of U3A human fibrosarcoma cells (4462 proteins detected) (Homo sapiens, UniProt P23921); conditions: protein RRM1; U3A, 10 μM, 2 h
# Sequence of proteins of U3A human fibrosarcoma cells (4462 proteins detected) (Homo sapiens, UniProt P23921) (P23921 whole entry): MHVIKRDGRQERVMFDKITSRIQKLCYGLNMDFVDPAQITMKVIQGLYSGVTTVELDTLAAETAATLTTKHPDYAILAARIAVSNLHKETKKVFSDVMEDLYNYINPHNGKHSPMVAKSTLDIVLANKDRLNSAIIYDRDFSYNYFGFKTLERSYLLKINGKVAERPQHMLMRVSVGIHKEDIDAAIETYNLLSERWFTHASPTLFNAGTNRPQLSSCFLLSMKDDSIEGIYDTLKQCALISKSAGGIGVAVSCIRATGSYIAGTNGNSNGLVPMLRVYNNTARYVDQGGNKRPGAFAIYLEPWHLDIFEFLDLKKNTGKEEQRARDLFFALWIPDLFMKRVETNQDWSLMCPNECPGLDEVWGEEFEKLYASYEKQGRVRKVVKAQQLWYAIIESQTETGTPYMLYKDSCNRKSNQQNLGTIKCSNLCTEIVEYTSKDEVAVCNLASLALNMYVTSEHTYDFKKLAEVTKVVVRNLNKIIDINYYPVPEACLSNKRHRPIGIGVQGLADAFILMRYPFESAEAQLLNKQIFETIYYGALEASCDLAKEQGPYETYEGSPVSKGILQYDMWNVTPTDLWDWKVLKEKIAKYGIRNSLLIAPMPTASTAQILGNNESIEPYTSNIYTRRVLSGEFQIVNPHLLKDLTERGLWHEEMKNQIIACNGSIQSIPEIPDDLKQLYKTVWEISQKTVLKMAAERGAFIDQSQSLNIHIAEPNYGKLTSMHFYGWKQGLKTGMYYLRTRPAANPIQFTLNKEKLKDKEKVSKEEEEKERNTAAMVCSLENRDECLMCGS
# [13] = target: proteins of U3A human fibrosarcoma cells (4462 proteins detected) (Homo sapiens, UniProt Q8TBF4); conditions: protein ZCRB1; soluble abundance after heat, U3A cells
# Sequence of proteins of U3A human fibrosarcoma cells (4462 proteins detected) (Homo sapiens, UniProt Q8TBF4) (Q8TBF4 whole entry): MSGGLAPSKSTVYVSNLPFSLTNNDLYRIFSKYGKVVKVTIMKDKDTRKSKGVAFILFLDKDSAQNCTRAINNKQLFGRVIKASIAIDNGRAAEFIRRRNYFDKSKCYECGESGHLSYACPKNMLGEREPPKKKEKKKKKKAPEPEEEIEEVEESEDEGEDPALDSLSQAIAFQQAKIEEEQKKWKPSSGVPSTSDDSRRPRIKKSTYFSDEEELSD
# [14] = target: proteins of U3A human fibrosarcoma cells (4462 proteins detected) (Homo sapiens, UniProt Q9BYG3); conditions: protein NIFK; soluble abundance after heat, U3A cells
# Sequence of proteins of U3A human fibrosarcoma cells (4462 proteins detected) (Homo sapiens, UniProt Q9BYG3) (Q9BYG3 whole entry): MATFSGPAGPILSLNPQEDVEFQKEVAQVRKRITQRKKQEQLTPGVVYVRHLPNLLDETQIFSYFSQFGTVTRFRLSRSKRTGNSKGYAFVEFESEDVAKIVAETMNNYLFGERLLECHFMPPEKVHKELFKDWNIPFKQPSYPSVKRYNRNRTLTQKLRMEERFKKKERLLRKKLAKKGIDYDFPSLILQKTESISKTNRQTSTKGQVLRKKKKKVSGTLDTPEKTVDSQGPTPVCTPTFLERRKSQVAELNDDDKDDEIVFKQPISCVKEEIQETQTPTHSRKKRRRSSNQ
# [15] = target: proteins of U3A human fibrosarcoma cells (4462 proteins detected) (Homo sapiens, UniProt Q8TAQ2); conditions: protein SMARCC2; soluble abundance after heat, U3A cells
# [16] = target: proteins of U3A human fibrosarcoma cells (4462 proteins detected) (Homo sapiens, UniProt Q12765); conditions: protein SCRN1, U3A cells
# [17] = target: proteins of U3A human fibrosarcoma cells (4462 proteins detected) (Homo sapiens, UniProt P49916); conditions: protein LIG3; U3A cells
# [18] = target: proteins of U3A human fibrosarcoma cells (4462 proteins detected) (Homo sapiens, UniProt Q9P032); conditions: protein NDUFAF4; U3A cells
# Sequence of proteins of U3A human fibrosarcoma cells (4462 proteins detected) (Homo sapiens, UniProt Q9P032) (Q9P032 whole entry): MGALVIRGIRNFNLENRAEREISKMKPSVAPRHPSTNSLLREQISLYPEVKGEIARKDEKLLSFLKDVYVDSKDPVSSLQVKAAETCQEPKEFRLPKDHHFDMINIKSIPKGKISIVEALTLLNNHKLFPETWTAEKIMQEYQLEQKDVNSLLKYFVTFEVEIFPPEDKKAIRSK
# [19] = target: proteins of U3A human fibrosarcoma cells (4462 proteins detected) (Homo sapiens, UniProt P08758); conditions: protein ANXA5, U3A cells
# Sequence of proteins of U3A human fibrosarcoma cells (4462 proteins detected) (Homo sapiens, UniProt P08758) (P08758 whole entry): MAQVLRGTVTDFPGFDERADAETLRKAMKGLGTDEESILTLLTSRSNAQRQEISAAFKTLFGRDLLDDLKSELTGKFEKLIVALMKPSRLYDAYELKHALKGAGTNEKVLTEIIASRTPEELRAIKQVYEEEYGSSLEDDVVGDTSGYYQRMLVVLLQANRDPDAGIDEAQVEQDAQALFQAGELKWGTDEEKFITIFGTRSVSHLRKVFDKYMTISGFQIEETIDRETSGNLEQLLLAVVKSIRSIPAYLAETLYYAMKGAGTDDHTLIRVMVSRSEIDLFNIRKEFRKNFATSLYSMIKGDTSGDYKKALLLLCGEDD
# [20] = target: proteins of U3A human fibrosarcoma cells (4462 proteins detected) (Homo sapiens, UniProt O14972); conditions: protein DSCR3; U3A, 10 μM, 2 h
# [21] = target: proteins of U3A human fibrosarcoma cells (4462 proteins detected) (Homo sapiens, UniProt P78347); conditions: protein GTF2I; U3A cells
# [22] = target: proteins of U3A human fibrosarcoma cells (4462 proteins detected) (Homo sapiens, UniProt P00568); conditions: protein AK1, U3A cells
# [23] = target: proteins of U3A human fibrosarcoma cells (4462 proteins detected) (Homo sapiens, UniProt Q495W5); conditions: protein FUT11; U3A cells
# [24] = target: proteins of U3A human fibrosarcoma cells (4462 proteins detected) (Homo sapiens, UniProt Q8NAV1); conditions: protein PRPF38A; U3A cells
# [25] = target: proteins of U3A human fibrosarcoma cells (4462 proteins detected) (Homo sapiens, UniProt Q9BSJ8); conditions: protein ESYT1; U3A cells
# [26] = target: proteins of U3A human fibrosarcoma cells (4462 proteins detected) (Homo sapiens, UniProt Q9UL15); conditions: protein BAG5; U3A cells
# [27] = target: proteins of U3A human fibrosarcoma cells (4462 proteins detected) (Homo sapiens, UniProt Q13627); conditions: protein DYRK1A, U3A cells
# [28] = target: proteins of U3A human fibrosarcoma cells (4462 proteins detected) (Homo sapiens, UniProt P14649); conditions: protein MYL6B, U3A cells
# [29] = target: proteins of U3A human fibrosarcoma cells (4462 proteins detected) (Homo sapiens, UniProt Q8NB16); conditions: protein MLKL; U3A, 10 μM, 2 h
# Sequence of proteins of U3A human fibrosarcoma cells (4462 proteins detected) (Homo sapiens, UniProt Q8NB16) (Q8NB16 whole entry): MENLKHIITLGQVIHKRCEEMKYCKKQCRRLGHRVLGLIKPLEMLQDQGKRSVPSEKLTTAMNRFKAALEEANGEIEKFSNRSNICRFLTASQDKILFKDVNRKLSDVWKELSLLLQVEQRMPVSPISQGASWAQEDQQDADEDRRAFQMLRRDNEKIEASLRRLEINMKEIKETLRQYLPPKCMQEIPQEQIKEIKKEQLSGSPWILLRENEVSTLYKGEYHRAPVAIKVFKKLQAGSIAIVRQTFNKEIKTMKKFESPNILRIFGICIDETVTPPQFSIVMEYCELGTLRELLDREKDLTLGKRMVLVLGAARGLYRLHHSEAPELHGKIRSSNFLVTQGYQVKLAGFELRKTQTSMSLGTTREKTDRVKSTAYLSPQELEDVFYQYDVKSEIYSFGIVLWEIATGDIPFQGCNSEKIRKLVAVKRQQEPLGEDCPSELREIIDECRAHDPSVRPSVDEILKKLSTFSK
# [30] = target: proteins of U3A human fibrosarcoma cells (4462 proteins detected) (Homo sapiens, UniProt Q92888); conditions: protein ARHGEF1; U3A cells
smiles,measurement,setting,value
CCc1nc(N)nc(N)c1-c1ccc(Cl)cc1 [pyrimethamine],Log2 (PYR/DMSO),[1],-0.05
same,Log2 (PYR/DMSO),[2],0.20
same,Log2 (PYR/DMSO),[3],0.15
same,Log2 (PYR/DMSO),[4],-0.04
same,Log2 (PYR/DMSO),[5],0.17
same,Log2 (PYR/DMSO),[6],0.16
same,Log2 (PYR/DMSO),[7],0.15
same,"Log2 (PYR/DMSO), ESYT2",[8],0.33
same,Log2 (PYR/DMSO),[9],0.17
same,Log2 (PYR/DMSO),[10],0.15
same,Log2 (PYR/DMSO),[11],-0.04
same,"Log2 (PYR/DMSO), RRM1",[12],0.24
same,Log2 (PYR/DMSO),[13],0.14
same,Log2 (PYR/DMSO),[14],0.14
same,Log2 (PYR/DMSO),[15],0.13
same,Log2 (PYR/DMSO),[16],-0.04
same,Log2 (PYR/DMSO),[17],0.16
same,Log2 (PYR/DMSO),[18],0.17
same,Log2 (PYR/DMSO),[19],-0.04
same,"Log2 (PYR/DMSO), DSCR3",[20],-0.16
same,Log2 (PYR/DMSO),[21],0.23
same,Log2 (PYR/DMSO),[22],-0.04
same,Log2 (PYR/DMSO),[23],0.17
same,Log2 (PYR/DMSO),[24],0.16
same,Log2 (PYR/DMSO),[25],0.20
same,Log2 (PYR/DMSO),[26],0.16
same,Log2 (PYR/DMSO),[27],-0.05
same,Log2 (PYR/DMSO),[28],-0.04
same,"Log2 (PYR/DMSO), MLKL",[29],0.27
same,Log2 (PYR/DMSO),[30],0.18
